Experimental data from article PMC8379256, “A xanthene derivative, DS20060511, attenuates glucose intolerance by inducing skeletal muscle-specific GLUT4 translocation in mice” (Communications Biology, 2021).
Several values for one entry are separate records, joined by “and”; a condition that tells them apart may be missing. Identical values can stand only once.

Tested on: C57BL/6 mice
Assay: Indirect calorimetry and exercise endurance under stepwise treadmill running
Format: in vivo, mouse
Settings: for Fat oxodation, sum over interval / Gluocse oxdation, sum over interval / Fat oxodation / Gluocse oxdation: individual mice 1-7
Procedure: The mice were acclimatized to the treadmill by allowing them to run at 10 m min^−1 for 10 min on the day before the test. On the day of the test, the mice received oral administration of 30 mg kg^−1 of DS20060511 or vehicle 15 min before they were made to run. The treadmill was started at a velocity of 10 m min^−1, with the speed increased stepwise by 2 m min^−1 every 3 min, to assess the exercise endurance capacity as described previously. Measurements of the oxygen consumption (VO2) and exhaled carbon dioxide (VCO2) under treadmill running were conducted with the ARCO-2000 magnetic-type mass spectrometric calorimeter (ARCO System, Kashiwa, Japan) connected to the treadmill chamber (MB-2000, ARCO System). The RER was calculated as the VCO2/VO2 ratio and the substrate utilization rates were calculated using Frayn’s formula[51]: rate of glucose oxidation = 4.585VCO2 − 3.226VO2; rate of fat oxidation = 1.695VO2 − 1.701VCO2. The exercise endurance capacity under treadmill running was determined by measuring the time from the start to the time until the mice ceased to run because of exhaustion, which was defined as remaining on the shocker plate for more than 10 sec. Immediately after the exercise, the blood glucose and lactate levels were measured using Glutest Every and Lactate Pro2 (ARKRAY, Kyoto, Japan), respectively, in blood samples collected from the tail vein.

[1] = 30 mg kg−1 po vs vehicle, treadmill running
[2] = DS20060511 30 mg/kg, 2 min, individual mice 1-7, Fig. 5a, 30 mg/kg

With COc1ccc2c(C)c(C(=O)O)ccc2c1C1C2=C(CC(C)(C)CC2=O)OC2=C1C(=O)CC(C)(C)C2 [DS20060511] the “blood lactate levels after exercise” value (30 mg kg−1 po vs vehicle) was “comparable between the two groups”, the exercise endurance capacity (30 mg kg−1 po vs vehicle, stepwise treadmill) was “comparable between the two groups” and the estimated glucose oxidation [1] was “significantly higher”. For the same compound, the fat oxidation [1] was “significantly lower”, the “respiratory exchange ratio (RER)” value [1] was “relatively higher” and the “blood glucose levels after exercise” value (30 mg kg−1 po, after treadmill running) was “decreased significantly after exercise”. For the same compound, the “Fat oxodation, sum over interval” value (30 mg/kg, 0-10 min) was 427.8 mg/min/kg and 293.6 mg/min/kg and 420.7 mg/min/kg and 305.9 mg/min/kg and 318.6 mg/min/kg and 347.3 mg/min/kg and 349.7 mg/min/kg, the “Gluocse oxdation, sum over interval” value (30 mg/kg, 0-10 min) was 257.7 mg/min/kg and 558.0 mg/min/kg and 414.2 mg/min/kg and 313.5 mg/min/kg and 385.3 mg/min/kg and 424.4 mg/min/kg and 413.9 mg/min/kg and the “Fat oxodation, sum over interval” value (30 mg/kg, 10-20 min) was 395.5 mg/min/kg and 242.6 mg/min/kg and 385.0 mg/min/kg and 272.2 mg/min/kg and 293.7 mg/min/kg and 348.5 mg/min/kg and 252.4 mg/min/kg. For the same compound, the “Gluocse oxdation, sum over interval” value (30 mg/kg, 10-20 min) was 391.9 mg/min/kg and 729.7 mg/min/kg and 425.7 mg/min/kg and 359.9 mg/min/kg and 949.6 mg/min/kg and 631.1 mg/min/kg and 663.2 mg/min/kg, the “Fat oxodation, sum over interval” value (30 mg/kg, 20-30 min) was 322.9 mg/min/kg and 234.0 mg/min/kg and 346.7 mg/min/kg and 272.4 mg/min/kg and 262.3 mg/min/kg and 313.5 mg/min/kg and 371.5 mg/min/kg and the “Gluocse oxdation, sum over interval” value (30 mg/kg, 20-30 min) was 572.7 mg/min/kg and 770.3 mg/min/kg and 804.1 mg/min/kg and 468.4 mg/min/kg and 807.5 mg/min/kg and 860.4 mg/min/kg and 944.3 mg/min/kg. The Fat oxodation (30 mg/kg, 2 min) was 49.1 mg/min/kg and 32.5 mg/min/kg and 45.5 mg/min/kg and 29.3 mg/min/kg and 25.5 mg/min/kg and 31.7 mg/min/kg and 38.3 mg/min/kg, the Gluocse oxdation (30 mg/kg, 2 min) was 22.8 mg/min/kg and 54.5 mg/min/kg and 47.8 mg/min/kg and 35.8 mg/min/kg and 26.2 mg/min/kg and 31.5 mg/min/kg and 33.5 mg/min/kg and the Fat oxodation (30 mg/kg, 3 min) was 47.1 mg/min/kg and 30.9 mg/min/kg and 42.8 mg/min/kg and 30.0 mg/min/kg (2×) and 34.1 mg/min/kg and 36.3 mg/min/kg. The Gluocse oxdation (30 mg/kg, 3 min) was 23.3 mg/min/kg and 55.7 mg/min/kg and 37.4 mg/min/kg and 36.0 mg/min/kg and 29.4 mg/min/kg and 34.4 mg/min/kg and 37.0 mg/min/kg, the Fat oxodation (30 mg/kg, 4 min) was 45.2 mg/min/kg and 28.8 mg/min/kg and 42.6 mg/min/kg and 34.0 mg/min/kg and 60.9 mg/min/kg and 33.7 mg/min/kg and 35.2 mg/min/kg and the Gluocse oxdation (30 mg/kg, 4 min) was 24.4 mg/min/kg and 56.1 mg/min/kg and 36.3 mg/min/kg and 34.1 mg/min/kg and 30.0 mg/min/kg and 35.7 mg/min/kg and 43.6 mg/min/kg. For the same compound, the Fat oxodation (30 mg/kg, 5 min) was 42.0 mg/min/kg (2×) and 29.8 mg/min/kg and 30.0 mg/min/kg and 28.6 mg/min/kg and 36.6 mg/min/kg and 31.5 mg/min/kg, the Gluocse oxdation (30 mg/kg, 5 min) was 25.9 mg/min/kg and 58.5 mg/min/kg and 35.2 mg/min/kg and 29.7 mg/min/kg and 36.7 mg/min/kg and 43.4 mg/min/kg and 40.9 mg/min/kg and the Fat oxodation (30 mg/kg, 6 min) was 40.6 mg/min/kg and 28.1 mg/min/kg (2×) and 39.9 mg/min/kg and 29.8 mg/min/kg and 36.7 mg/min/kg and 34.9 mg/min/kg. The Gluocse oxdation (30 mg/kg, 6 min) was 27.6 mg/min/kg and 62.3 mg/min/kg and 41.7 mg/min/kg and 27.0 mg/min/kg and 29.5 mg/min/kg and 41.2 mg/min/kg and 41.6 mg/min/kg, the Fat oxodation (30 mg/kg, 7 min) was 44.6 mg/min/kg and 27.7 mg/min/kg and 40.8 mg/min/kg and 31.0 mg/min/kg and 29.7 mg/min/kg and 36.4 mg/min/kg and 33.0 mg/min/kg and the Gluocse oxdation (30 mg/kg, 7 min) was 25.8 mg/min/kg and 57.6 mg/min/kg and 41.7 mg/min/kg and 27.6 mg/min/kg and 31.8 mg/min/kg and 41.2 mg/min/kg and 41.5 mg/min/kg. For the same compound, the Fat oxodation (30 mg/kg, 8 min) was 40.5 mg/min/kg and 29.5 mg/min/kg and 42.0 mg/min/kg and 36.5 mg/min/kg and 31.2 mg/min/kg and 35.1 mg/min/kg and 53.1 mg/min/kg, the Gluocse oxdation (30 mg/kg, 8 min) was 25.7 mg/min/kg and 46.1 mg/min/kg and 38.7 mg/min/kg and 30.3 mg/min/kg and 43.2 mg/min/kg and 42.8 mg/min/kg and 44.9 mg/min/kg and the Fat oxodation (30 mg/kg, 9 min) was 38.5 mg/min/kg (2×) and 26.8 mg/min/kg and 37.4 mg/min/kg and 31.8 mg/min/kg and 32.4 mg/min/kg and 27.0 mg/min/kg. The Gluocse oxdation (30 mg/kg, 9 min) was 33.9 mg/min/kg and 53.4 mg/min/kg and 38.5 mg/min/kg and 22.6 mg/min/kg and 54.7 mg/min/kg and 55.4 mg/min/kg and 48.5 mg/min/kg, the Fat oxodation (30 mg/kg, 10 min) was 34.8 mg/min/kg and 27.2 mg/min/kg and 41.0 mg/min/kg and 29.8 mg/min/kg and 30.4 mg/min/kg and 34.2 mg/min/kg and 23.3 mg/min/kg and the Gluocse oxdation (30 mg/kg, 10 min) was 30.0 mg/min/kg and 56.7 mg/min/kg and 39.2 mg/min/kg and 35.9 mg/min/kg and 69.2 mg/min/kg and 58.5 mg/min/kg and 43.5 mg/min/kg. For the same compound, the Fat oxodation (30 mg/kg, 11 min) was 31.8 mg/min/kg and 26.7 mg/min/kg and 43.5 mg/min/kg and 30.9 mg/min/kg and 23.0 mg/min/kg and 34.9 mg/min/kg and 24.3 mg/min/kg, the Gluocse oxdation (30 mg/kg, 11 min) was 26.2 mg/min/kg and 54.7 mg/min/kg and 51.9 mg/min/kg and 29.4 mg/min/kg and 70.2 mg/min/kg and 68.8 mg/min/kg and 48.6 mg/min/kg and the Fat oxodation (30 mg/kg, 12 min) was 38.6 mg/min/kg and 27.7 mg/min/kg and 39.9 mg/min/kg and 32.1 mg/min/kg and 28.8 mg/min/kg and 35.4 mg/min/kg and 26.2 mg/min/kg. The Gluocse oxdation (30 mg/kg, 12 min) was 31.9 mg/min/kg and 64.6 mg/min/kg and 37.7 mg/min/kg and 26.9 mg/min/kg and 70.4 mg/min/kg and 57.6 mg/min/kg and 47.4 mg/min/kg, the Fat oxodation (30 mg/kg, 13 min) was 43.1 mg/min/kg and 20.9 mg/min/kg and 41.6 mg/min/kg and 25.9 mg/min/kg and 29.8 mg/min/kg and 35.1 mg/min/kg and 26.2 mg/min/kg and the Gluocse oxdation (30 mg/kg, 13 min) was 26.0 mg/min/kg and 67.8 mg/min/kg and 36.1 mg/min/kg and 27.0 mg/min/kg and 75.8 mg/min/kg and 55.4 mg/min/kg and 71.1 mg/min/kg. For the same compound, the Fat oxodation (30 mg/kg, 14 min) was 40.8 mg/min/kg and 24.1 mg/min/kg and 37.9 mg/min/kg and 28.8 mg/min/kg and 31.7 mg/min/kg and 36.1 mg/min/kg and 24.4 mg/min/kg, the Gluocse oxdation (30 mg/kg, 14 min) was 35.1 mg/min/kg and 58.5 mg/min/kg and 33.2 mg/min/kg and 25.3 mg/min/kg and 81.8 mg/min/kg and 57.9 mg/min/kg and 62.6 mg/min/kg and the Fat oxodation (30 mg/kg, 15 min) was 37.9 mg/min/kg and 23.3 mg/min/kg and 38.6 mg/min/kg and 27.4 mg/min/kg and 30.7 mg/min/kg and 40.7 mg/min/kg and 24.3 mg/min/kg. The Gluocse oxdation (30 mg/kg, 15 min) was 36.9 mg/min/kg and 60.6 mg/min/kg and 34.7 mg/min/kg and 16.1 mg/min/kg and 95.7 mg/min/kg and 52.2 mg/min/kg and 66.3 mg/min/kg, the Fat oxodation (30 mg/kg, 16 min) was 43.4 mg/min/kg and 24.7 mg/min/kg and the Gluocse oxdation (30 mg/kg, 16 min) was 35.4 mg/min/kg and 77.5 mg/min/kg. The “CO2 Production (VCO2)” value [2] was 92.8 mL/min/kg and 70.8 mL/min/kg and 81.2 mL/min/kg and 81.9 mL/min/kg and 71.5 mL/min/kg and 71.3 mL/min/kg and 73.6 mL/min/kg and the “O2 Consumption (VO2)” value [2] was 108.3 ml/min/kg and 99.5 ml/min/kg and 86.9 ml/min/kg and 90.3 ml/min/kg (2×) and 96.4 ml/min/kg and 122.1 ml/min/kg.
